Test results from ChEMBL document CHEMBL5291721, “A preclinical secondary pharmacology resource illuminates target-adverse drug reaction associations of marketed drugs” (Nat Commun, 2023).
Each block holds one compound with its values, some of them ahead of it.

Columns and labels:
Thromboxane A2 receptor [1] = target: T1, Thromboxane A2 receptor (Homo sapiens, UniProt P21731); type: functional, cell-based
T1 sequence (P21731 whole entry): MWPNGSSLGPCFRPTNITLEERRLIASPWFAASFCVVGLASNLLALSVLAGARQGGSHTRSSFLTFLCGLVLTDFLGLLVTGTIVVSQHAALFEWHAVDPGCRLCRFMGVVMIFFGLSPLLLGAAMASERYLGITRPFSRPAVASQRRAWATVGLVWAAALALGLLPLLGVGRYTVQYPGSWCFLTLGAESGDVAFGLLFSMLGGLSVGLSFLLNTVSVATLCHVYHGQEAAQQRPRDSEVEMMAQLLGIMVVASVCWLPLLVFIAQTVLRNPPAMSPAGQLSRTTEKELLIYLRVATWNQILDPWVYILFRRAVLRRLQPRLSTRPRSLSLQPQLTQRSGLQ

Thromboxane A2 receptor [2] = target: T1, Thromboxane A2 receptor; type: functional
Bile acid receptor = target: T2, Bile acid receptor (Homo sapiens, UniProt Q96RI1); type: functional
T2 sequence (Q96RI1 whole entry): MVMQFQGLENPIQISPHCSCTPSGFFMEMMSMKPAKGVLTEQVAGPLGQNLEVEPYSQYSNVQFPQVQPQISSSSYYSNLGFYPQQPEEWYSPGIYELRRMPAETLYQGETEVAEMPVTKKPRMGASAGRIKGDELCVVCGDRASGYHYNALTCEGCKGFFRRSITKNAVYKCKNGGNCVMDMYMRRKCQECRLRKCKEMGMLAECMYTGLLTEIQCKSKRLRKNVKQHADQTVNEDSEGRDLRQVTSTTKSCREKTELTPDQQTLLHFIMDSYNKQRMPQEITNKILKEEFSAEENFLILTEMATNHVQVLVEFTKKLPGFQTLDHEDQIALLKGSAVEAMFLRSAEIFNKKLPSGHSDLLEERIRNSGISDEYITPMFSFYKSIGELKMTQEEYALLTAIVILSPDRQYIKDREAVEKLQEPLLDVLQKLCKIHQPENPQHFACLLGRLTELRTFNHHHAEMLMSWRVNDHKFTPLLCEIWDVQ

[3] = target: T3, Retinoic acid receptor gamma (Homo sapiens, UniProt P13631); type: functional, cell-based
T3 sequence (P13631 whole entry): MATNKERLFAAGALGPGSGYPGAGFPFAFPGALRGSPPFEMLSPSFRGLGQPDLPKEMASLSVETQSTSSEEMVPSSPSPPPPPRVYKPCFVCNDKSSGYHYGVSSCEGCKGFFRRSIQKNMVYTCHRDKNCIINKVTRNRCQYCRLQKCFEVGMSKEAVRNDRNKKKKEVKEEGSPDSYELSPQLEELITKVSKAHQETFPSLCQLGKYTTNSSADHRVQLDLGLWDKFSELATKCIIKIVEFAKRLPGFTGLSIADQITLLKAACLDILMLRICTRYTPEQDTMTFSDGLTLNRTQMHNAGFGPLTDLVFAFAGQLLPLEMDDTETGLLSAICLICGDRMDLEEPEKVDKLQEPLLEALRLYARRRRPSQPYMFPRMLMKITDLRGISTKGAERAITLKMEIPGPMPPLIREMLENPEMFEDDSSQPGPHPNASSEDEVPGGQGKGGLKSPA

[4] = target: T4, Oxysterols receptor LXR-beta (Homo sapiens, UniProt P55055); type: functional
T4 sequence (P55055 whole entry): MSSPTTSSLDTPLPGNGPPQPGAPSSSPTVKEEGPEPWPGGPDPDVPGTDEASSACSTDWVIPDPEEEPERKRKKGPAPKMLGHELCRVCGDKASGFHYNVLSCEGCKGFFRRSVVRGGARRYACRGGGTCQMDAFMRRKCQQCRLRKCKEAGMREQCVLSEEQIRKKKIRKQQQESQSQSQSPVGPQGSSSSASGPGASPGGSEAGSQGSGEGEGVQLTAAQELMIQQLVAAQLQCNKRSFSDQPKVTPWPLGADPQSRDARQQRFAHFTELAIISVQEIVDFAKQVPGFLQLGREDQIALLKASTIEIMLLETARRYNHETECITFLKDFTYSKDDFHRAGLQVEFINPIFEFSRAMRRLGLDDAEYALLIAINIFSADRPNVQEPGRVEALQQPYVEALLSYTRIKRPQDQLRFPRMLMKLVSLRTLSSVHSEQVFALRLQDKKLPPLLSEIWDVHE

[5] = target: T5, Retinoic acid receptor beta (Homo sapiens, UniProt P10826); type: functional, cell-based
T5 sequence (P10826 whole entry): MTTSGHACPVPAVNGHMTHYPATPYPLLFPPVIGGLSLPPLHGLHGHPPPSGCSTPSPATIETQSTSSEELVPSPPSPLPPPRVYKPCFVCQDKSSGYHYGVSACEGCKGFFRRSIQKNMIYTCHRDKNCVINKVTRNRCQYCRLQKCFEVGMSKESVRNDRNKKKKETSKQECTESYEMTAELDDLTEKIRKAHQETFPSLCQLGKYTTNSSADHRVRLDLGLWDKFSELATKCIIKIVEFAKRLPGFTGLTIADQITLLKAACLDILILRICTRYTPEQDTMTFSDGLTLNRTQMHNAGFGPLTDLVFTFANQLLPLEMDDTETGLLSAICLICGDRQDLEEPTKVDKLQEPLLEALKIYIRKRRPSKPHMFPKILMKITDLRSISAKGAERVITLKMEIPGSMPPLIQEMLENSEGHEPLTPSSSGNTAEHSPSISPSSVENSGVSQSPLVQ

[6] = target: T4, Oxysterols receptor LXR-beta; type: functional; remark: listed apart in the source
[7] = target: T6, Prostaglandin G/H synthase 1 (Rattus norvegicus, UniProt Q63921); type: functional
T6 sequence (Q63921 whole entry): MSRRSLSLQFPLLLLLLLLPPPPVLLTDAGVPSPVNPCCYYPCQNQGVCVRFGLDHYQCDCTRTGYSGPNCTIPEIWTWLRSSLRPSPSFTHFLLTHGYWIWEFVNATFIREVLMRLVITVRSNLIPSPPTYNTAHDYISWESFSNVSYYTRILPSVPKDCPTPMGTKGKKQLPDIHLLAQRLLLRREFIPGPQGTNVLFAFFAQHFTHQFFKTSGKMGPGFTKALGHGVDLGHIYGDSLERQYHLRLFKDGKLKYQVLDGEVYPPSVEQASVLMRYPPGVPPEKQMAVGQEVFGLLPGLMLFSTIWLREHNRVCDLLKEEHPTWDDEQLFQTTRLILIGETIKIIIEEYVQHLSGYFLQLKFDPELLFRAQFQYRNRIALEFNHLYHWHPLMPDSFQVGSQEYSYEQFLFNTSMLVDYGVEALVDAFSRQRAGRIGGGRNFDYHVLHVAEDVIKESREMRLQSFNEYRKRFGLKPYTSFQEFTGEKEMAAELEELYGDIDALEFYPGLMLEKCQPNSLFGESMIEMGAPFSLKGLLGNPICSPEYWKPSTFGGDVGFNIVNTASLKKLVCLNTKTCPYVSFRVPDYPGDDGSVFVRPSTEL
Also: assay procedure not described here.

AC50 (Thromboxane A2 receptor [1]): > 30 µM | AC50 (Thromboxane A2 receptor [2]): > 30 µM
SMILES: N=C(N)NC(=O)Cc1c(Cl)cccc1Cl [GUANFACINE]

SMILES: CC(=O)N1CCN(c2ccc(OCC3COC(Cn4ccnc4)(c4ccc(Cl)cc4Cl)O3)cc2)CC1 (stereo not drawn) [KETOCONAZOLE]
AC50 (Bile acid receptor): > 30 µM | AC50 [3]: > 30 µM | AC50 [4]: > 30 µM | AC50 [5]: > 30 µM | AC50 [6]: 4.7 µM

AC50 [7]: 0.0782 µM
SMILES: COc1ccc(C(Cl)=C(c2ccc(OC)cc2)c2ccc(OC)cc2)cc1 [CHLOROTRIANISENE]
